Source: US12233053B2, “Adenosine A3 receptor antagonists for treating aging skin and wounds” (ORADIN PHARMACEUTICAL LTD., priority 2021, dated 2025)

Key:
HaCaT keratinocyte cells [1] = assay: Scratch assay (gap size, cell migration), keratinocytes; format: cell-based, human; details: 24 hours
Procedure: (§1) Keratinocyte HaCaT cells or 3T3 fibroblast cells (10^6 cells) were grown in 35 mm petri dishes in DMEM containing 10% FCS overnight. Thereafter, the cell cultures were scratched using 20 μl pipet tip in the middle of the culture plate, the cells were washed three times, and then MRS-1523 (at concentrations of 10 nM to 10 μM in DMEM containing 10% FCS) was added to each scratched plate and incubated with the cells for 24 hours. The gap size in plates of MRS-1523 treated cells was compared to the gap size in plates of control cells which were scratched and incubated for 24 hours in DMEM containing 10% FCS in the absence of MRS-1523. The results are presented as mean±SD. Statistical significance was determined by Student T-test.

3T3 fibroblast cells [2] = assay: Scratch assay (gap size, cell migration), fibroblasts; format: cell-based; details: 24 hours
Procedure: as §1

B16-F1 melanocytes [3] = assay: Scratch assay (gap size, cell migration), melanocytes; format: cell-based; details: 10 μM, 24 hours, B16-F1, FIG. 4E
Procedure: FIGS. 4A-E show bar graphs of the gap size in a scratch assay of different cell types in culture. FIGS. 4A-B show bar graphs of the gap size of HaCaT keratinocyte cells (A) and 3T3 fibroblast cells (B) 24 hours after treatment with increasing concentrations of MRS-1523 in the scratch assay. FIGS. 4C-E show bar graphs of the gap size of HaCAT cells (FIG. 4C), 3T3 fibroblasts (FIG. 4D), and B16-F1 melanocytes (FIG. 4E) after 24-hour treatment with 10 μM MRS-1523 in the scratch assay. *p<0.05, **p<0.01 by Student T-test.
as §1

3T3 fibroblast cells [4] = tested on: 3T3 fibroblast cells
Procedure: (§2) Cell viability was then measured using Alamar blue (AB) assay according to the manufacturer's instructions. Briefly, the cells were rinsed with PBS, and 0.2 ml of an AB solution (10% (v/v) of AB dye in DMEM) were added to each well. After incubation of 3 hours, AB fluorescence was quantified at the excitation and emission wavelengths of 540 and 595 nm, respectively, using a Tecan Genios microplate reader. The results are given as mean±SD. Statistical significance was determined by Student T-Test.

HaCaT cells = assay: Differentiation markers PAR-2 and Filaggrin in keratinocytes (immunostaining); format: cell-based, human; details: 10 μM, 24 hours
Procedure: HaCaT cells were grown in DMEM containing 10% FCS for 24 hours. The cells were then treated with 10 μM MRS-1523 for 24 hours, washed with PBS, and fixed with 4% paraformaldehyde for 1 hour. Fixed cells were washed and incubated with the following primary antibodies (Sigma): anti-PAR-2 (Clone SAM11 produced in mouse, reactive to mouse and human) followed by secondary antibodies, anti-mouse antibodies conjugated to FITC, or anti-Filaggrin (FLG; produced in rabbit) followed by secondary antibodies, anti-rabbit antibodies conjugated to Alexa Fluor® 488.

skin explants = assay: Fibroblast and collagen staining of skin explants (H&E, Fontana-Masson); parameters: species or system human; details: 10 μM, 12 days
Procedure: Skin explants were treated with MRS-1523 (10 μM) for 12 days. Thereafter, the skin explants were stained with hematoxylin and eosin (H&E; FIGS. 5A and 5C) or with Fontana-Masson (FIGS. 5B and 5D).

HaCaT keratinocyte cells [5] = details: 10 μM or lower concentrations, 24 hours
Procedure: as §2

B16-F1 melanocytes [6] = tested on: B16-F1 melanocytes
Procedure: HaCaT cells or 3T3 cells (2×10^4) were incubated in 96-well Elisa plates in DMEM containing 10% fetal calf serum (FCS) in the presence of increasing concentrations of MRS-1523 for 24 hours. Cell viability was then measured using Alamar blue (AB) assay according to the manufacturer's instructions. Briefly, the cells were rinsed with PBS, and 0.2 ml of an AB solution (10% (v/v) of AB dye in DMEM) were added to each well. After incubation of 3 hours, AB fluorescence was quantified at the excitation and emission wavelengths of 540 and 595 nm, respectively, using a Tecan Genios microplate reader. The results are given as mean±SD. Statistical significance was determined by Student T-Test.

3T3 fibroblast cells [7] = assay: Collagen-1 and F-actin expression in fibroblasts (confocal fluorescence); format: cell-based; details: 10 μM, 24 hours
Procedure: The effect of MRS-1523 on collagen level in fibroblasts in culture was next examined. 3T3-fibroblast cells were grown in DMEM containing 10% FCS for 24 hours, and then were treated with 10 μM MRS-1523 for additional 24 hours. Thereafter, the presence of collagen or F-actin was evaluated as follows: the cells were incubated with rabbit anti-collagen-1 antibodies, and then with Alexa Fluor® 488-conjugated goat anti-rabbit antibodies to detect collagen-1 (green staining). Detection of F-actin was performed by F-actin-Phalloidin-staining (red staining). Cell nuclei were stained with 4′,6-diamidino-2-phenylindole (DAPI; blue staining).

CCCOC(=O)c1c(-c2ccccc2)nc(CC)c(C(=O)SCC)c1CCC [MRS-1523, 3-propyl-6-ethyl-5[(ethylthio)carbonyl]-2-phenyl-4-propyl-3-pyridine carboxylate]
gap size vs control cells (cell migration) (HaCaT keratinocyte cells [1]; 0.01 μM-10 μM, FIG. 4A): significant reduction in the gap size | cell migration (HaCaT keratinocyte cells [1]; 10 μM, FIG. 4C): significantly stimulated | gap size vs control cells (cell migration) (3T3 fibroblast cells [2]; 0.01 μM-10 μM, 3T3, FIG. 4B): significant reduction in the gap size | cell migration (3T3 fibroblast cells [2]; 10 μM, 3T3, FIG. 4D): significantly stimulated | melanocytes migration (B16-F1 melanocytes [3]): attenuated | toxic effect on fibroblasts (3T3 fibroblast cells [4]): did not induce any toxic effect | fibroblast proliferation (3T3 fibroblast cells [4]; 10 μM, 24 hours, 3T3): slight but significant increase | expression of Filaggrin (FLG) vs control untreated cells (HaCaT cells): decrease | expression of PAR-2 vs control untreated cells (HaCaT cells): decrease | collagen levels in the dermis vs untreated skin explants (skin explants): increase | fibroblast levels in the dermis vs untreated skin explants (skin explants): increase | stimulation of keratinocyte proliferation (HaCaT keratinocyte cells [5]): 8-16% | toxic effect on melanocyte cells (B16-F1 melanocytes [6]): did not induce any toxic effect | melanocyte proliferation (B16-F1 melanocytes [6]; 24 hours, B16-F1): promoted their proliferation | expression of F-actin vs control cells (3T3 fibroblast cells [7]): not increased | expression of collagen-1 vs control untreated fibroblasts (3T3 fibroblast cells [7]): increased expression
